The results in this text go back to patent US9296697B2, “Hetaryl-substituted guanidine compounds and use thereof as binding partners for 5-HT5-receptors” (Abbott Laboratories, priority 2005, dated 2016).

What is called Ki is the equilibrium dissociation constant of an inhibitor or competing ligand from its target.

Where a name gives a salt, the structure may show the parent alone.

T1 sequence (P47898 whole entry): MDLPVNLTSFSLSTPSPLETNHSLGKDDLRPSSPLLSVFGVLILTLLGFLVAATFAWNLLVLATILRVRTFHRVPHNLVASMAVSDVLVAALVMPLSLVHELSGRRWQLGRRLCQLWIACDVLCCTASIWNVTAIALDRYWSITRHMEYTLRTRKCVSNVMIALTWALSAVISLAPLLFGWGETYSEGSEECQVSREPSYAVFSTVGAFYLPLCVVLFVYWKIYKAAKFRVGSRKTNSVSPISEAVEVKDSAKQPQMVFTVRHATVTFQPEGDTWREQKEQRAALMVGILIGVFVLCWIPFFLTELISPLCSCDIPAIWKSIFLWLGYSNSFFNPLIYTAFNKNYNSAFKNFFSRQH

The test addresses T1, h5-HT5A receptor (Homo sapiens, UniProt P47898).
T1 construct: expressed in transfected cells; membranes used
Kind of test: h5-HT5A [3H]5-CT binding assay. The following applies: affinity for 5-HT5A; membranes of HEK293 cells expressing the h5-HT5A receptor gene, 2.5 nM [3H]5-CT. The procedure:
h5-HT5A [^3H]5-CT Binding Assay
Membranes of HEK293 cells which permanently express the h5-HT5A receptor gene were incubated in 100 mM tris-HCl buffer (pH 7.7) containing 1 mM EDTA, in the presence of 2.5 nM [^3H]5-CT (total volume 600 μL). The total binding is defined as the binding that is observed when the membranes are incubated in the presence of only the radioligand. The inhibition induced by the compound is determined by incubation of cell membranes in the presence of the radioligand and various concentrations of the compound of interest. Nonspecific binding is defined as the [^3H]5-CT binding obtained by incubation of the membranes, the same as for the total binding, but in the presence of 10 μM methiothepine. Following incubation for 75 min at 30° C., the membrane suspension was filtered through a GF/B-Filter coated with 0.03% PEI, using a Skatron® harvesting system. The residual radioactivity in the filter was quantified by liquid scintillation counting.
Various concentrations of the test substances were used in both assays, and the Ki or IC50 values were determined.
`COc1ccccc1CNC(=N)Nc1ccccn1` [Example 1, N-(2-methoxybenzyl)-N′-pyridin-2-yl-guanidine acetate] gave an inhibition constant Ki of under 100 nM.

On to `COc1cccc(OC)c1CNC(=N)Nc1ccc(I)cn1` [Example 3, N-(2,6-dimethoxybenzyl)-N′-(5-iodopyridin-2-yl)guanidine], for which the Ki is under 100 nM.

As for `COc1ccccc1CN=C(N)Nc1ccc(I)cn1` [Example 4, N-(5-Iodopyridin-2-yl)-N″-(2-methoxybenzyl)guanidine], the Ki is under 100 nM.

`COc1cccc(OC)c1CNC(=N)Nc1ccccn1` [Example 5, N-(2,6-dimethoxybenzyl)-N′-pyridin-2-yl-guanidine acetate] returned a Ki of under 100 nM.

For `COc1ccccc1CNC(=N)Nc1ccc(C)cn1` [Example 6, N-(2-methoxybenzyl)-N′-(5-methylpyridin-2-yl)guanidine acetate], the Ki is under 100 nM.

`COc1cccc(OC)c1CNC(=N)Nc1ccc(C)cn1` [Example 7, N-(2,6-dimethoxybenzyl)-N′-(5-methylpyridin-2-yl)guanidine]: the Ki was under 100 nM.

Regarding `COc1ccccc1CNC(=N)Nc1cccc(C)n1` [Example 8, N-(2-Methoxybenzyl)-N′-(6-methylpyridin-2-yl)guanidine], the inhibition constant (Ki) was under 100 nM.

The compound `COc1cccc(OC)c1CNC(=N)Nc1cccc(C)n1` [Example 9, N-(2,6-dimethoxybenzyl)-N′-(6-methylpyridin-2-yl)guanidine] yielded a Ki of under 100 nM.

In turn, `COc1ccccc1CNC(=N)Nc1ncc(C(F)(F)F)cc1Cl` [Example 10, N-[3-Chloro-5-(trifluoromethyl)pyridin-2-yl]-N′-(2-methoxybenzyl)guanidine acetate] had an inhibition constant (Ki) of under 10000 nM.

In turn, `COc1cccc(OC)c1CNC(=N)Nc1ncc(C(F)(F)F)cc1Cl` [Example 11, N-[3-Chloro-5-(trifluoromethyl)pyridin-2-yl]-N′-(2,6-dimethoxybenzyl)guanidine acetate] registered an inhibitory constant (Ki) of under 10000 nM.

Take `COc1ccccc1CNC(=N)Nc1ncccc1C` [Example 12, N-(2-Methoxybenzyl)-N′-(3-methylpyridin-2-yl)guanidine acetate]: the Ki was under 100 nM.

Take `COc1cccc(OC)c1CNC(=N)Nc1ncccc1C` [Example 13, N-(2,6-Dimethoxybenzyl)-N′-(3-methylpyridin-2-yl)guanidine acetate]: the Ki was under 100 nM.

For `COc1ccccc1CNC(=N)Nc1nccc(-c2cccs2)n1` [Example 14, N-(2-Methoxybenzyl)-N′-(4-(2-thienyl)pyrimidin-2-yl]guanidine acetate], the Ki was under 10000 nM.

`COc1cccc(OC)c1CNC(=N)Nc1nccc(-c2cccs2)n1` [Example 15, N-(2,6-Dimethoxybenzyl)-N′-[4-(2-thienyl)pyrimidin-2-yl]guanidine acetate] displayed a Ki of under 100 nM.

`COc1ccccc1CNC(=N)Nc1cnc2ccccc2c1` [Example 16, N-(2-Methoxybenzyl)-N′-quinolin-3-yl-guanidine acetate] yielded a Ki of under 10000 nM.

With `COc1cccc(OC)c1CNC(=N)Nc1cnc2ccccc2c1` [Example 17, N-(2,6-Dimethoxybenzyl)-N′-quinolin-3-yl-guanidine acetate], the inhibition constant (Ki) is under 100 nM.

`COc1cccc(Cl)c1CNC(=N)Nc1ccc(C)cn1` [Example 18, N-(2-Chloro-6-methoxybenzyl)-N′-(5-methylpyridin-2-yl)guanidine acetate] had a Ki of under 100 nM.

Compound `COc1cccc(C)c1CNC(=N)Nc1ccc(C)cn1` [Example 19, N-(2-Methoxy-6-methylbenzyl)-N′-(5-methylpyridin-2-yl)guanidine] displayed an inhibition constant Ki of under 100 nM.

As for `COc1cccc(F)c1CNC(=N)Nc1ccc(C)cn1` [Example 20, N-(2-Fluoro-6-methoxybenzyl)-N′-(5-methylpyridin-2-yl)guanidine acetate], the Ki was under 100 nM.

Consider `Cc1ccc(NC(=N)NCc2ccccc2Cl)nc1` [Example 21, N-(2-Chlorobenzyl)-N′-(5-methylpyridin-2-yl)guanidine], for which the Ki is under 300 nM.

`CCOc1ccccc1CNC(=N)Nc1ccc(C)cn1` [Example 22, N-(2-Ethoxybenzyl)-N′-(5-methylpyridin-2-yl)guanidine acetate] displayed an inhibitory constant (Ki) of under 100 nM.

Compound `Cc1ccc(NC(=N)NCc2ccccc2OC(C)C)nc1` [Example 23, N-(2-Isopropoxybenzyl)-N′-(5-methylpyridin-2-yl)guanidine acetate] registered a Ki of under 100 nM.

As for `Cc1ccc(NC(=N)NCc2ccccc2OC(F)(F)F)nc1` [Example 24, N-(5-Methylpyridin-2-yl)-N′-[2-(trifluoromethoxy)benzyl]guanidine], the inhibitory constant (Ki) was under 100 nM.

Turning to `CCc1ccccc1CNC(=N)Nc1ccc(C)cn1` [Example 25, N-(2-Ethylbenzyl)-N′-(5-methylpyridin-2-yl)guanidine], the inhibition constant Ki was under 300 nM.

With `Cc1ccc(NC(=N)NCc2ccccc2OC(F)F)nc1` [Example 26, N-[2-(Difluoromethoxy)benzyl]-N′-(5-methylpyridin-2-yl)guanidine], the Ki is under 100 nM.

Consider `Cc1ccc(NC(=N)NCc2c(Cl)cccc2Oc2ccccc2)nc1` [Example 27, N-(2-Chloro-6-phenoxybenzyl)-N′-(5-methylpyridin-2-yl)guanidine acetate], for which the inhibition constant (Ki) is under 100 nM.

The compound `Cc1ccc(NC(=N)NCc2ccccc2Oc2ccccc2)nc1` [Example 28, N-(5-Methylpyridin-2-yl)-N′-(2-phenoxybenzyl)guanidine hydrochloride] came in with an inhibition constant (Ki) of under 100 nM.

The compound `COc1ccccc1CNC(=N)Nc1cc(C)ccn1` [Example 29, N-(2-Methoxybenzyl)-N′-(4-methylpyridin-2-yl)guanidine acetate] registered a Ki of under 100 nM.

`COc1cccc(OC)c1CNC(=N)Nc1cc(C)ccn1` [Example 30, N-(2,6-Dimethoxybenzyl)-N′-(4-methylpyridin-2-yl)guanidine acetate] had a Ki of under 100 nM.

`COc1cccc(Cl)c1CNC(=N)Nc1ncccc1C` [Example 31, N-(2-Chloro-6-methoxybenzyl)-N′-(3-methylpyridin-2-yl)guanidine] had an inhibition constant (Ki) of under 100 nM.

`COc1cccc(F)c1CNC(=N)Nc1ncccc1C` [Example 32, N-(2-Fluoro-6-methoxybenzyl)-N′-(3-methylpyridin-2-yl)guanidine]: the Ki was under 100 nM.

Consider `COc1cccc(C)c1CNC(=N)Nc1ncccc1C` [Example 33, N-(2-Methoxy-6-methylbenzyl)-N′-(3-methylpyridin-2-yl)guanidine], for which the Ki is under 100 nM.

Compound `COc1ccccc1CNC(=N)Nc1cccnc1` [Example 34, N-(2-Methoxybenzyl)-N′-pyridin-3-yl-guanidine acetate] came in with a Ki of under 10000 nM.

Compound `COc1ccccc1CNC(=N)Nc1ccc[n+](C)c1` [Example 35, 3-({Imino[(2-methoxybenzyl)amino]methyl}amino)-1-methylpyridinium acetate] came in with a Ki of under 10000 nM.

`COc1ccccc1CNC(=N)Nc1ncccn1` [Example 36, N-(2-Methoxybenzyl)-N′-pyrimidin-2-yl-guanidine acetate]: the Ki was under 10000 nM.

Regarding `COc1cccc(OC)c1CNC(=N)Nc1ncccn1` [Example 37, N-(2,6-Dimethoxybenzyl)-N′-pyrimidin-2-ylguanidine], the Ki is under 100 nM.

Consider `COc1ccccc1CNC(=N)Nc1cc2ccccc2cn1` [Example 38, N-Isoquinolin-3-yl-N′-(2-methoxybenzyl)guanidine], for which the Ki is under 100 nM.

`COc1cccc(OC)c1CNC(=N)Nc1cc2ccccc2cn1` [Example 39, N-(2,6-Dimethoxybenzyl)-N′-isoquinolin-3-ylguanidine] registered a Ki of under 100 nM.

On to `COc1ccccc1CNC(=N)Nc1ccc2ccccc2n1` [Example 40, N-(2-Methoxybenzyl)-N′-quinolin-2-yl-guanidine acetate], for which the Ki was under 100 nM.

Turning to `COc1cccc(OC)c1CNC(=N)Nc1ccc2ccccc2n1` [Example 41, N-(2,6-Dimethoxybenzyl)-N′-quinolin-2-yl-guanidine acetate], the inhibition constant (Ki) was under 100 nM.

The compound `COc1ccccc1CNC(=N)Nc1cccc(Br)n1` [Example 42, N-(6-Bromopyridin-2-yl)-N′-(2-methoxybenzyl)guanidine] registered a Ki of under 100 nM.

With `COc1cccc(OC)c1CNC(=N)Nc1cccc(Br)n1` [Example 43, N-(6-Bromopyridin-2-yl)-N′-(2,6-dimethoxybenzyl)guanidine], the Ki was under 100 nM.

In turn, `COc1cccc(OC)c1CNC(=N)Nc1cc(Br)ccn1` [Example 44, N-(4-Bromopyridin-2-yl)-N′-(2,6-dimethoxybenzyl)guanidine] registered an inhibition constant (Ki) of under 100 nM.

Compound `COc1ccccc1CNC(=N)Nc1cc(Br)ccn1` [Example 45, N-(4-Bromopyridin-2-yl)-N′-(2-methoxybenzyl)guanidine] registered an inhibition constant (Ki) of under 100 nM.

The compound `COc1cccc(OC)c1CNC(=N)Nc1ncccc1Br` [Example 46, N-(3-Bromopyridin-2-yl)-N′-(2,6-dimethoxybenzyl)guanidine acetate] had an inhibitory constant (Ki) of under 100 nM.

As for `COc1ccccc1CNC(=N)Nc1ncccc1Br` [Example 47, N-(3-Bromopyridin-2-yl)-N′-(2-methoxybenzyl)guanidine acetate], the Ki was under 10000 nM.

Consider `COc1ccccc1CNC(=N)Nc1cccc(-c2ccc(OC(F)(F)F)cc2)n1` [Example 48, N-(2-Methoxybenzyl)-N′-{6-[4-(trifluoromethoxy)phenyl]pyridin-2-yl}guanidine], for which the Ki is under 10000 nM.
